The values below come from patent US8541670B2, “Compositions and methods for inhibiting tumor cell growth” (priority 2007, dated 2013).

Where no end group is shown, it is not given here. red fluorescent dye = not defined here

For one assay, the target named is T1, SGK (Homo sapiens, UniProt O00141).
T1 construct: endogenous in cells
T1 sequence (O00141 1-431): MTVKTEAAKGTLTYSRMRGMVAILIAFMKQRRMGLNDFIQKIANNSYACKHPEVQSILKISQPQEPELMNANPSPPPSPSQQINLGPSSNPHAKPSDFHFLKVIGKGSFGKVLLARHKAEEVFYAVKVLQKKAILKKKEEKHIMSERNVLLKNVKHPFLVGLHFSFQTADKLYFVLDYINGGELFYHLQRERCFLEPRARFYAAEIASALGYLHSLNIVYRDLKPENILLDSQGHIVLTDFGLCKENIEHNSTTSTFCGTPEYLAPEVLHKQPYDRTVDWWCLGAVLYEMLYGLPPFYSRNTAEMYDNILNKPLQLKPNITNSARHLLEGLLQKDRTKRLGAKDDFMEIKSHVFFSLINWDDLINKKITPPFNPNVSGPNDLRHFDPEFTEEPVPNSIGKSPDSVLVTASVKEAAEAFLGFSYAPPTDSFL
Kind of assay: In vitro kinase assay SGK. The class given is biochemical. The note with it: ten times higher concentration than 0.1 μM. On the procedure:
As a specific substrate, the phosphorylation level of GSK-3[…] at Ser-9 was also evaluated. […] The decrease was specific to the AKT phosphorylation site on GSK-3[…] at Ser-9, since a change in the phosphorylation level of GSK-3[…] at Tyr-216 or GSK-3[…] at Tyr-279 was not observed. Moreover, the in vivo reduction of the phosphorylation of AKT substrates was more obvious at the injection site, since a significant change in the phosphorylation of AKT substrates in the frontal cortex or cerebellum between the two hemispheres was not observed. […] To test the specificity/selectivity of ZaTa as the inhibitor of AKT1 versus the other major kinases, a series of in vitro kinase assays was performed at IC50 for AKT1 and at ten times higher concentrations. A panel of the following 32 kinases was first tested in vitro using the active form of each kinase and a specific substrate: AKT2, AKT3, PKA, PKC[…], PKC, PI3K[…], PI3K[…], PI3K, SGK, PAK2, PAK3, SAPK2/p38, Abl, CaMKII, CDK1/cyclinB, CDK5/p35, CK1, CK2, CSK, GSK3[…], GSK3[…], JNK1[…]1, MAPK1, p70S6K, PDGFR[…], PDGFR[…], PDK1, PKG1[…], TrkB, JAK2, JAK3, and Syk. […] However, at ten times higher concentration, ZaTa inhibited AKT2 (63%), PI3K[…] (72%), p70S6K (64%), SGK (73%), PAK3 (83%), JAK3 (79%), TrkB (84%), and Abl (42%). […]

Another assay concerns the target AKT-PKAc complex (Mus musculus, UniProt P31750). Kind of assay: Co-immunoprecipitation of AKT-PKAc complex in N2a cells. As to conditions: 24-hour treatment. Set-up: Neuroblastoma 2a (N2a) neurons expressing an endogenous level of AKT and PKAc; endogenous in cells; host or cells: N2a neuroblastoma cells. The class given is cell-based. The procedure: Accordingly, the stability and phenotypic consequences of the AKT-PKAc complex was also analyzed in cultured neurons. N2a cells were treated with vehicle, ZaTa or control peptide for 24 hours. Media was removed after the 24-hour treatment and an equal number of cells from each treatment group was either cultured for another 24 hours without treatment, or lysed and subjected to immunoprecipitation with an antibody against AKT. Those cells cultured for another 24 hours were also harvested and subjected to immunoprecipitation. In parallel, the number of individual neurons with neurites was counted. […] Live images of N2a neurons were captured following treatment with vehicle or ZaTa (2 or 5 μM). […] ZaTa-mediated changes included a progressive loss of neurites, inhibition of new neurite formation, loss of cell motility, as well as formation of large cell colonies.

Another assay has as its target PAK3 (Homo sapiens, UniProt O75914). The assay can be described thus: Cell-based kinase assay, phosphorylation of intracellular substrate (Ser-338 cRaf). The procedure:
As a specific substrate, the phosphorylation level of GSK-3[…] at Ser-9 was also evaluated. […] The decrease was specific to the AKT phosphorylation site on GSK-3[…] at Ser-9, since a change in the phosphorylation level of GSK-3[…] at Tyr-216 or GSK-3[…] at Tyr-279 was not observed. Moreover, the in vivo reduction of the phosphorylation of AKT substrates was more obvious at the injection site, since a significant change in the phosphorylation of AKT substrates in the frontal cortex or cerebellum between the two hemispheres was not observed. […] To test the specificity/selectivity of ZaTa as the inhibitor of AKT1 versus the other major kinases, a series of in vitro kinase assays was performed at IC50 for AKT1 and at ten times higher concentrations. […]
Phosphorylation sites for kinases analyzed herein included Ser-235/236 S6 (a substrate for p70S6K), Tyr-207 CRKL (a substrate for Abl; Zipfel, et al. (2004) supra), Ser-241 PDK1 (a substrate for PI3K), Tyr-1022/1023 JAK1 (a substrate for JAK3; Wang, et al. (2003) supra), Ser-421 Huntingtin (a substrate for SGK; Rangone, et al. (2004) supra), Tyr-783 PLC (a substrate for TrkB; Middlemas, et al. (1994) supra), and Ser-338 cRaf (a substrate for PAK3; King, et al. (1998) supra).

Chain of AKT-PKAc complex (P31750 whole entry, one chain of several): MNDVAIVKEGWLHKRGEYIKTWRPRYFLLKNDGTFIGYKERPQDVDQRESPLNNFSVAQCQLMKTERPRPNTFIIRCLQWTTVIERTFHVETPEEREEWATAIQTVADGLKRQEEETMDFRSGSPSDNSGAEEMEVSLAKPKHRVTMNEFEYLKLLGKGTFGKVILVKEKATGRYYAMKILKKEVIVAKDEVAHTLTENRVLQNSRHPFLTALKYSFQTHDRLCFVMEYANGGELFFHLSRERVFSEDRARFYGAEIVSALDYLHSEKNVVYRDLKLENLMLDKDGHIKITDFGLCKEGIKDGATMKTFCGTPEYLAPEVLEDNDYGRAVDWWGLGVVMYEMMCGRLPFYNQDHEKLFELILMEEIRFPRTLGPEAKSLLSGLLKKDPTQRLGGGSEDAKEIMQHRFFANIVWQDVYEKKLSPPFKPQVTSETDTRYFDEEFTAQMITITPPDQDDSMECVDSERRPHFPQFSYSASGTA
Chain of PAK3 (O75914 whole entry, species assumed): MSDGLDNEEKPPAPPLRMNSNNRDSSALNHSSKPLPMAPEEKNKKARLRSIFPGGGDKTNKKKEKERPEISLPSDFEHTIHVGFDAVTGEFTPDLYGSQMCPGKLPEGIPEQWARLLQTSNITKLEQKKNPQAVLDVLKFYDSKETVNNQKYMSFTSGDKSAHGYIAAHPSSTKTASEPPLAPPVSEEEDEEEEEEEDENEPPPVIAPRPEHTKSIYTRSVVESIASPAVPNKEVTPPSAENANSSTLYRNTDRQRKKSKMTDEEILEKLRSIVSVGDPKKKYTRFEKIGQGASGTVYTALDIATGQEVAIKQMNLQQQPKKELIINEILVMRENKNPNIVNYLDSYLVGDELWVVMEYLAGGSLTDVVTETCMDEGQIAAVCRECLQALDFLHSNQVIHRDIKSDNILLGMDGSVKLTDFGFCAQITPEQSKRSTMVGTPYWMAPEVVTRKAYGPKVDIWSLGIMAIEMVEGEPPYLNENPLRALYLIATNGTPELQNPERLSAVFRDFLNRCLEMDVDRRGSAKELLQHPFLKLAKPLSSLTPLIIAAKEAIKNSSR

On to AKRVKGRTWTLCGTPEY [ZaTa], for which the “inhibition of SGK” value on SGK came out at 73%. Besides, at AKT-PKAc complex, the “amount of PKAc in physical contact with AKT, N2a cells” value is recorded as “reduced the amount of PKAc in physical contact with AKT”.
Regarding “labeled ZaTa: ZaTa peptide labeled with a red fluorescent dye at its N-terminus ({red fluorescent dye}-AKRVKGRTWTLCGTPEY; reading uncertain)”, in the assay with PAK3, the “inhibition of PAK3 in cells” value is listed as “did not cause inhibition”.
